Reference: patent US7388006B2, “Non-steroidal progesting” (Bayer Schering Pharma AG, priority 2002, dated 2008)

How the values were obtained:
[1] = tested on: uterine growth in ovariectomized estradiol-treated rats; experiment: Antiuterotropic activity in the rat (uterine weight, epithelial height); format: in vivo; conditions: for Functional antiestrogenic effect (uterine weight gain, epithelial cell height): 3 days
Description: Compounds with estrogenic activity induce uterine growth, resulting in an increase in uterine weight. They also induce a characteristic change of the appearance of the endometrial epithelium as indicated by an increase in epithelial height. PR modulators counteract estrogenic activity by inhibiting uterine weight gain and epithelial cell proliferation. This effect is sometimes referred to as “functional antiestrogenic” effect.
To test for antiuterotropic activity of the most preferred progestin according to the present invention, i.e., compound ((+)-1), ovariectormized rats are treated for 3 days with 0.3 μg/kg/d estradiol (E2) and in addition with increasing doses of ((+)-1) (cf. FIG. 4). Each test group shown in FIG. 4 consists of 10 rats, with the exception of one group (cf. FIG. 4, bottom diagram, 150 μg/kg of ((+)-1)), indicated by “#”), which consists of nine rats.
Changes in uterine weight, luminal epithelial height and the status of cell proliferation and keratinization of the vaginal smear servs as parameters for estrogenic activity. In combination with ((+)-1), decreases in estrogen-stimulated uterine weight gain and luminal epithelial height are parameters for antiestrogenic activity (cf. FIG. 4).
For the reference group (estradiol (E2)-treated), stimulation of the uterine weight and the luminal epithelial height in comparison to the vehicle control was calculated as follows: […]
In the antiestrogen assay, inhibition of uterine weight or luminal epithelial height in comparison to the effect seen with the reference compound (estradiol) was calculated as follows: […]
For statistical analysis, the 95% confidence interval was calculated using a software which was developed by the Biostatistical Department of Schering AG. The asterisks indicate a significant difference (p<0.05).

thymus weight = experiment: Glucocorticoid/anti-glucocorticoid activity in vivo (changes in thymus weight)
rabbit endometrium = experiment: Endometrial transformation in rabbit (Clauberg test, McPhail index); format: in vivo
Description: The test is performed in juvenile female rabbits (New Zealand white, 30 to 35 days old; obtained from Schriever, Germany). From days 1 to 4, all rabbits are primed with […] (s.c., 0.5 ml/kg/day) in order to induce proliferation of the endometrium. From days 7 to 10, the test compound is applied orally (p.o., 0.5 ml/kg/day) at doses of 0.001, 0.01 and 0.1 mg/kg/day. A group which receives only vehicle after estradiol priming serves as a negative control. A second group which receives only progesterone in order to induce endometrial differentiation after estradiol priming is used as a positive control. In order to study the progestagenic activity of ((+)-1), which is the most preferred compound according to the present invention, one treatment group-receives only the compound ((+)-1) after estradiol priming.
Autopsy is performed on […]. As a parameter for progestagenic activity, the McPhail index (i.e., the degree of differentiation) is determined by means of light microscopy (scores: 1 to 4; 1=no glandular differentiation, 4=maximal differentiation).

[2] = target: T1, mineralocorticoid receptor (MR) (Homo sapiens, UniProt P08235); experiment: Binding to the mineralocorticoid receptor in vitro
T1 sequence (P08235 1-984): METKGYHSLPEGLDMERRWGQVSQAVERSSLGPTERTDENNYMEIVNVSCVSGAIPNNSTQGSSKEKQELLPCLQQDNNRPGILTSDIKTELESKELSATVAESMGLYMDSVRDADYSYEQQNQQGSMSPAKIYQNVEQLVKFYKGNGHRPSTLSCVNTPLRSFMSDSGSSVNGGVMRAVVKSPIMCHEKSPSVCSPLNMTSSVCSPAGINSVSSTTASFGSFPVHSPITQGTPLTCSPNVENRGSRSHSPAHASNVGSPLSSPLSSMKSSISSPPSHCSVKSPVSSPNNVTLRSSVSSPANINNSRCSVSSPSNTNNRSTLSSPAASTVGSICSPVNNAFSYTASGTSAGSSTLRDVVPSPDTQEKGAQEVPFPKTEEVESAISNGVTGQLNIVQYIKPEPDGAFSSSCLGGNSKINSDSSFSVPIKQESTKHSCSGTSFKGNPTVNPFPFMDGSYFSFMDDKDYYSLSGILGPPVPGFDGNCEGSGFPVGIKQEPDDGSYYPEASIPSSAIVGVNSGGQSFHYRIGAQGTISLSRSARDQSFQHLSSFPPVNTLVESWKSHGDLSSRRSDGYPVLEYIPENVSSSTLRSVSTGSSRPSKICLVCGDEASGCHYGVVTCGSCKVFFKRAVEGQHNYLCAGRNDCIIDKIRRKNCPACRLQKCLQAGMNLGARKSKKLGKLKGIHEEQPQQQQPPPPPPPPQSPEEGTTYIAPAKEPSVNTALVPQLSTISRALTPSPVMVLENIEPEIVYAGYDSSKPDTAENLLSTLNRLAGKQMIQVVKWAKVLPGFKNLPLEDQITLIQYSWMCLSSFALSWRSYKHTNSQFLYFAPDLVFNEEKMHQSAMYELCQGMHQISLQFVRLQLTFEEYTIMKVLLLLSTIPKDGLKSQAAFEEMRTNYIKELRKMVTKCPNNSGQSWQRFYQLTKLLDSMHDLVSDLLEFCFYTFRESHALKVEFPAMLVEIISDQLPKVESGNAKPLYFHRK

In the case of `O=C1OCc2cc(NC(=O)C(O)(CC3(c4cc(C(F)(F)F)ccc4F)CC3)C(F)(F)F)ccc21` (single isomer, unassigned; (+)) [((+)-1), (+)-5-{2-hydroxy-3-[1-(2-fluoro-5-trifluoromethylphenyl)-cyclopropyl]-2-trifluoromethyl-propionylamino}-phthalide], the “Functional antiestrogenic effect (uterine weight gain, epithelial cell height)” value ([1]; 5 μg/kg/d with estradiol) is reported as “submaximum effect”, the “Functional antiestrogenic effect (uterine weight gain, epithelial cell height)” value ([1]; 15 μg/kg/d with estradiol) is reported as “Maximum effect” and the “Functional antiestrogenic effect, in words” value ([1]; in combination with estradiol, FIG. 4) is reported as “strong functional antiestrogenic effect”. For the same molecule, the “Glucocorticoid and anti-glucocorticoid activity in vivo” value (thymus weight) was “does not seem to exhibit any glucocorticoid or any anti-glucocorticoid activity in vivo”, the “Potency upon subcutaneous versus oral application, in words” value (rabbit endometrium; Clauberg test, rabbit) was “identical potency” and the “Threshold Value (endometrial transformation)” value (rabbit endometrium; oral (p.o.)) was 0.001 to 0.01 mg/kg. For the same molecule, the “Affinity for the mineralocorticoid receptor (MR)” value [2] was “negligible affinity”.
